Where two headings read alike, the source gives them in different places.
What was measured:
MC1R (HBL cells) = target: T1, MC1R (HBL cells) (Homo sapiens, UniProt Q01726); assay: Competition binding assay with [^125I]-NDP-MSH, human HBL melanoma cells; conditions: HBL cells, [^125I]-NDP-MSH competition, 37°C, 2 h; n = 3–20; ± SEM; ^c = P < 0.05 vs. DOTA-NAP-amide; read-out: Receptor-binding potency IC50
T1 construct: endogenous in cells; host or cells: human HBL melanoma cell line
Method: (§1) Triplicates of 100-µL volumes of B16-F1 or HBL cell suspensions adjusted to 4 × 10^6/mL were incubated in 96-well U-bottom microplates (Falcon 3077). The binding medium consisted of MEM with Earle’s salts, 0.2% BSA, and 0.3 mM 1,10-phenanthroline. This binding medium was called mouse binding medium (MBM). Triplicates of competitor peptide solution (50 µL) yielding final concentrations ranging from 1 × 10^−6 to 1 × 10^−12 M were added. [^125I]NDP-MSH (50,000 cpm) in 50 µL was finally added to each well. The plates were incubated at 15°C for 3 h for B16-F1 cells and at 37°C for 2 h for HBL cells. The incubation was stopped by covering the plates with ice for 10 min. A cell harvester was used to collect cell-bound radioactivity on filters (Packard Unifilter-96 GF/B). The collected radioactivity was counted on a TopCount scintillation counter (Packard) after addition of 50 µL Microscint-20 scintillation cocktail (Perkin Elmer). The IC50 values were calculated with the Prism 6 software (GraphPad Software Inc., San Diego CA, USA).
(§2) The binding affinity of the peptides to MC1R was assessed by competition binding assays using [^125I]-NDP-MSH as radioligand and both murine B16-F1 and human HBL cells.

[1] = Biodistribution of ^111In-labeled peptides in B16-F1 melanoma-bearing mice; type: in vivo, mouse (B6D2F1); conditions: female, iv, total radioactivity, ^111In-labeled peptide, 185 kBq i.v., mean ± SEM of three experiments, n = 5 animals each
Method: About 5 × 10^5 B16-F1 cells were implanted subcutaneously to female B6D2F1 mice (C57BL/6 × DBA/2F1 hybrids; breeding pairs obtained from IFFA-CREDO, France). Seven days later, 185 kBq of ^111In-labeled ligand in 200 µL PBS/0.1% BSA were injected intravenously into the lateral tail vein of each mouse. Control mice were injected with a mixture of the tracer and 50 µg α-MSH to determine the non-specific uptake of radioligand. The animals were sacrificed 4, 24, and 48 h postinjection, dissected, and the tissues of interest collected, rinsed of excess blood, and weighed. The radioactivity emitted by each organ was measured in a γ-counter to determine the tissue uptake as percentage of the injected dose (ID) per gram of tissue. The total of injected radioactivity per animal was determined by extrapolation from the counts of a standard collected from the injection solution for each animal. Urine samples were collected at 10, 15, and 20 min and 4 h after injection and kept frozen at −80°C until use. Urine (1 vol) was mixed with methanol (2 vol) to precipitate proteins, and the supernatant was analyzed by RP-HPLC/γ-detection, as described in Ref. ([12]).
Results are expressed as means ± SEM, unless otherwise stated. The statistical evaluation of data was performed using the one- or two-way ANOVA test. When significant overall effects were obtained by ANOVA, multiple comparisons were made with the Bonferroni correction. P < 0.05 was considered statistically significant. The area under the curve (AUC) was calculated with the GraphPad Prism 6 software for the indicated period of time, using the mean tissue uptake value at each time point.

MC1R (B16-F1 cells) = target: T2, MC1R (B16-F1 cells) (Mus musculus, UniProt Q01727); assay: Competition binding assay with [^125I]-NDP-MSH, mouse B16-F1 melanoma cells; conditions: B16-F1 cells, [^125I]-NDP-MSH competition, 15°C, 3 h; n = 3–20; ± SEM; ^c = P < 0.05 vs. DOTA-NAP-amide; read-out: Receptor-binding potency IC50
T2 construct: endogenous in cells; host or cells: mouse B16-F1 melanoma cells
Method: as §1, §2

[2] = in vivo; cited from earlier work
[3] = B6D2F1 (C57BL/6 × DBA/2F1 hybrids), mouse, blood, read-out: Blood uptake
[4] = B6D2F1 (C57BL/6 × DBA/2F1 hybrids), mouse, muscle, read-out: Muscle uptake
[5] = B6D2F1 (C57BL/6 × DBA/2F1 hybrids), mouse, tumor, read-out: Tumor uptake
[6] = B6D2F1, mouse, bone, read-out: Bone uptake
[7] = B6D2F1, mouse, heart, read-out: Heart uptake
[8] = B6D2F1, mouse, kidney, read-out: Kidney uptake
[9] = B6D2F1, mouse, liver, read-out: Liver uptake
[10] = B6D2F1, mouse, lung, read-out: Lung uptake
[11] = B6D2F1, mouse, pancreas, read-out: Pancreas uptake
[12] = B6D2F1, mouse, small intestines, read-out: Small intestines uptake
[13] = B6D2F1, mouse, spleen, read-out: Spleen uptake
[14] = B6D2F1, mouse, stomach, read-out: Stomach uptake

T2 sequence (Q01727 whole entry): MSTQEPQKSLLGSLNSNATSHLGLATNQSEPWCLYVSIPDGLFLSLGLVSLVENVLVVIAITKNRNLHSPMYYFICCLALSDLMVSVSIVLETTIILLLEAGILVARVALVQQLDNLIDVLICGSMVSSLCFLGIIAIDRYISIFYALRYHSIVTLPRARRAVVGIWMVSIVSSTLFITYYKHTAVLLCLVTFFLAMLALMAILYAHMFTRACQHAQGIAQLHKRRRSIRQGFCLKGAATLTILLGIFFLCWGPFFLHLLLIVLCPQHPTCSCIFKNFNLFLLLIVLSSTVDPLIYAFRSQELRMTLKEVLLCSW
T1 sequence (Q01726 whole entry): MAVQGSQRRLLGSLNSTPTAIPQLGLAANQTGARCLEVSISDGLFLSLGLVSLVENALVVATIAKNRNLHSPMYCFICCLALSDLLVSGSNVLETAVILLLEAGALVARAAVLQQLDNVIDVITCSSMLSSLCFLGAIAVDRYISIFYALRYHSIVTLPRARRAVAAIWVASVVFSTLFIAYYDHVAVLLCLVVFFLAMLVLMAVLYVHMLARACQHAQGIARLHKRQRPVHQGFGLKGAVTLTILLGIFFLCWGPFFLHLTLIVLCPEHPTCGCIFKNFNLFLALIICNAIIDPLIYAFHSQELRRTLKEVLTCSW

With `CCCC[C@H](NC(C)=O)C(=O)N[C@@H](CC(=O)O)C(=O)N[C@@H](Cc1c[nH]cn1)C(=O)N[C@H](Cc1ccccc1)C(=O)N[C@@H](CCCNC(=N)N)C(=O)N[C@@H](Cc1c[nH]c2ccccc12)C(=O)NCC(=O)N[C@@H](CCCCNC(=O)CN1CCN(CC(=O)O)CCN(CC(=O)O)CCN(CC(=O)O)CC1)C(N)=O` [DOTA-NAP-amide, [Ac-Nle^4,Asp^5,D-Phe^7,Lys^11(DOTA)]-α-MSH4-11, reference compound] the IC50 (MC1R (HBL cells)) was 3.09 ± 1.11 nM, the tissue uptake at 4 h [1, 3] was 0.09 ± 0.02 %ID/g and the tissue uptake at 24 h [1, 3] was 0.02 %ID/g. For the same compound, the tissue uptake at 48 h ([1]; B6D2F1 (C57BL/6 × DBA/2F1 hybrids), mouse, bone, read-out: Bone uptake) was 0.05 ± 0.01 %ID/g, the tissue uptake at 4 h [1, 4] was 0.05 ± 0.01 %ID/g and the tissue uptake at 24 h [1, 4] was 0.02 %ID/g. For the same compound, the tissue uptake at 48 h [1, 4] was 0.01 %ID/g, the tissue uptake at 24 h [1, 5] was 2.32 ± 0.15 %ID/g and the tissue uptake at 48 h [1, 5] was 1.41 ± 0.12 %ID/g. The tissue uptake at 4 h [1, 6] was 0.11 ± 0.02 %ID/g, the tissue uptake at 24 h [1, 6] was 0.14 ± 0.02 %ID/g and the tissue uptake at 4 h [1, 7] was 0.05 ± 0.01 %ID/g. For the same compound, the tissue uptake at 24 h [1, 7] was 0.03 %ID/g, the tissue uptake at 48 h [1, 7] was 0.01 %ID/g and the tissue uptake at 24 h [1, 8] was 2.41 ± 0.2 %ID/g. It also gave a tissue uptake at 48 h [1, 8] of 1.55 ± 0.07 %ID/g, a tissue uptake at 4 h [1, 9] of 0.34 ± 0.05 %ID/g and a tissue uptake at 24 h [1, 9] of 0.31 ± 0.02 %ID/g. For the same compound, the tissue uptake at 48 h [1, 9] was 0.27 ± 0.07 %ID/g, the tissue uptake at 4 h [1, 10] was 0.08 ± 0.01 %ID/g and the tissue uptake at 24 h [1, 10] was 0.05 ± 0.01 %ID/g. It also gave a tissue uptake at 48 h [1, 10] of 0.03 %ID/g, a tissue uptake at 4 h [1, 11] of 0.04 %ID/g and a tissue uptake at 24 h [1, 11] of 0.03 %ID/g. The tissue uptake at 48 h [1, 11] was 0.02 %ID/g, the tissue uptake at 4 h [1, 12] was 0.07 ± 0.01 %ID/g and the tissue uptake at 24 h [1, 12] was 0.08 ± 0.01 %ID/g. It also gave a tissue uptake at 48 h [1, 12] of 0.05 ± 0.01 %ID/g, a tissue uptake at 4 h [1, 13] of 0.14 ± 0.01 %ID/g and a tissue uptake at 24 h [1, 13] of 0.11 ± 0.01 %ID/g. The tissue uptake at 48 h [1, 13] was 0.1 ± 0.01 %ID/g, the tissue uptake at 4 h [1, 14] was 0.09 ± 0.01 %ID/g and the tissue uptake at 24 h [1, 14] was 0.12 ± 0.02 %ID/g. The tissue uptake at 48 h [1, 14] was 0.11 ± 0.05 %ID/g, the IC50 (MC1R (B16-F1 cells)) was 1.38 ± 0.35 nM and the “Tumor and non-tumor tissue uptake (in words)” value [2] was “highest tumor uptake paired with minimal non-tumor tissue uptake, except for the kidneys”.

Source: PMC5405074, “Receptor-Mediated Melanoma Targeting with Radiolabeled α-Melanocyte-Stimulating Hormone: Relevance of the Net Charge of the Ligand” (Frontiers in Endocrinology, 2017)
